# Experimental data published in patent publication US20220135622A1, “ANTIBACTERIAL PEPTIDES AND METHODS OF USE” (priority 2019, published 2022).
# Square brackets hold non-standard residues; d marks the D form. Peptide text beside a SMILES is read from it. Bip = N[C@@H](Cc1ccc(-c2ccccc2)cc1)C(=O)O; NMeF = CN[C@@H](Cc1ccccc1)C(=O)O; NMeM = CN[C@@H](CCSC)C(=O)O; Pip = O=C(O)[C@@H]1CCCCN1; NMeA = CN[C@@H](C)C(=O)O; Dap = NC[C@H](N)C(=O)O; Aib = CC(C)(N)C(=O)O
# System: E. coli BW25113
# Assay type: cell-based, Escherichia coli
# Details: BW25113
# Method: Bacterial growth conditions. LB or Mueller Hinton II cation-adjusted broth (MHB II, BBL 212322) was prepared according to manufacturer's instructions and supplemented with arabinose at 0.02% for overnight growth or at indicated concentrations in the description of the figures. Bacterial cultures were grown at 37° C. When appropriate, media was supplemented with kanamycin (50 μg/mL), carbenicillin (50 μg/mL), chloramphenicol (12.5 or 25 μg/mL), hygromycin (200 μg/mL), and/or gentamicin (10 μg/mL).
# Peptide sensitivity and MIC assays. Lyophilized peptides (Smartox Biotechnology, CPC Scientific. ABclonal) were solubilized to 10 mM in Tris buffer, pH 8, prior to making a 2-fold dilution series in MHBII cation adjusted broth with highest final assay concentration of 400-800 μM. Bacteria were grown to log phase and added to final OD600˜0.001. The final EDTA concentration was 0.5 mM for E. coli strains and 0.125 mM for USA300. The final volume of 10 μL/well in a 384 well black, clear bottom plate (Corning) was spun <1 min at <250×g and then incubated at 37° C. After 4 h, an equal volume (10 μL) of BacTiter-Glo™ (Promega) was added to each well and luminescence was read after 5 min on an EnVision plate reader (PerkinElmer). To measure the minimal inhibitory concentrations (MICs), bacteria from fresh overnight plates or log phase cultures were diluted with or without EDTA and peptides as described above to final OD600˜0.0002. Plates were incubated at 37° C. for 20 h before measuring OD600 with an EnVision plate reader.
row,Structure (SMILES),MIC E. coli BW25113 [µM]
1,CSCC[C@H](NC(=O)[C@H](CN)NC(=O)[C@H](Cc1ccc(O)cc1)NC(C)=O)C(=O)N1CCC[C@H]1C(=O)N[C@@H](Cc1ccccc1)C(=O)N[C@@H](CCCNC(=N)N)C(=O)N[C@@H](CCCNC(=N)N)C(=O)N[C@@H](Cc1ccccc1)C(=O)N[C@@H](CC(C)C)C(=O)N[C@@H](CCC(=O)O)C(=O)N[C@@H](CCCCN)C(=O)N[C@@H](Cc1c[nH]c2ccccc12)C(=O)NCC(=O)N[C@@H](CC(C)C)C(=O)N[C@@H](CC(C)C)C(=O)N[C@@H](CCCNC(=N)N)C(N)=O [compound 102] (Ac-Y[Dap]MPFRRFLEKWGLLR-NH2),25.0
2,CSCC[C@H](NC(=O)[C@H](CN)NC(=O)[C@@H]1CCCN1C(=O)[C@H](Cc1ccc(O)cc1)NC(C)=O)C(=O)N[C@@H](Cc1ccccc1)C(=O)N[C@@H](CCCNC(=N)N)C(=O)N[C@@H](CCCNC(=N)N)C(=O)N[C@@H](Cc1ccccc1)C(=O)N[C@@H](CC(C)C)C(=O)N[C@@H](CCC(=O)O)C(=O)N[C@@H](CCCCN)C(=O)N[C@@H](Cc1c[nH]c2ccccc12)C(=O)NCC(=O)N[C@@H](CC(C)C)C(=O)N[C@@H](CC(C)C)C(=O)N[C@@H](CCCNC(=N)N)C(N)=O [compound 103] (Ac-YP[Dap]MFRRFLEKWGLLR-NH2),<12.5
3,CSCC[C@H](NC(=O)[C@@H]1CCCN1C(=O)[C@H](Cc1ccc(O)cc1)NC(C)=O)C(=O)N[C@@H](CCCNC(=N)N)C(=O)N[C@@H](Cc1ccccc1)C(=O)N[C@@H](CN)C(=O)N[C@@H](CCCNC(=N)N)C(=O)N[C@@H](Cc1ccccc1)C(=O)N[C@@H](CC(C)C)C(=O)N[C@@H](CCC(=O)O)C(=O)N[C@@H](CCCCN)C(=O)N[C@@H](Cc1c[nH]c2ccccc12)C(=O)NCC(=O)N[C@@H](CC(C)C)C(=O)N[C@@H](CC(C)C)C(=O)N[C@@H](CCCNC(=N)N)C(N)=O [compound 105] (Ac-YPMRF[Dap]RFLEKWGLLR-NH2),50
4,CSCC[C@H](NC(=O)[C@H](CN)NC(=O)[C@H](CCSC)NC(=O)[C@@H]1CCCN1C(=O)[C@H](CCCNC(=N)N)NC(C)=O)C(=O)N[C@@H](CCCNC(=N)N)C(=O)N[C@@H](CCCNC(=N)N)C(=O)N[C@@H](Cc1ccc(-c2ccccc2)cc1)C(=O)N[C@@H](CC(C)C)C(=O)N[C@@H](C)C(=O)N[C@@H](CCCCN)C(=O)N[C@@H](Cc1c[nH]c2ccccc12)C(=O)NCC(=O)N[C@@H](CC(C)C)C(N)=O [compound 217] (Ac-RPM[Dap]MRR[Bip]LAKWGL-NH2),12.5
5,CSCC[C@H](NC(=O)[C@H](CN)NC(=O)[C@H](CCSC)NC(=O)[C@@H]1CCCN1C(=O)[C@H](CCCNC(=N)N)NC(C)=O)C(=O)N[C@@H](CCCNC(=N)N)C(=O)N[C@@H](CCCNC(=N)N)C(=O)N[C@@H](Cc1ccc(-c2ccccc2)cc1)C(=O)N[C@@H](CC(C)C)C(=O)N[C@@H](C)C(=O)N[C@@H](CCCCN)C(=O)N[C@@H](CCCNC(=N)N)C(=O)NCC(=O)N[C@@H](CC(C)C)C(N)=O [compound 219] (Ac-RPM[Dap]MRR[Bip]LAKRGL-NH2),25.0
6,CSCC[C@H](NC(=O)[C@@H]1CCCN1C(=O)[C@H](CCCNC(=N)N)NC(C)=O)C(=O)N[C@H](C(=O)NC(C)(C)C(=O)N[C@@H](CCCNC(=N)N)C(=O)N[C@@H](CCCNC(=N)N)C(=O)N[C@@H](Cc1c[nH]c2ccccc12)C(=O)N[C@@H](CC(C)C)C(=O)N[C@@H](C)C(=O)N[C@@H](CCCCN)C(=O)N[C@@H](CCCNC(=N)N)C(=O)NCC(=O)N[C@@H](CC(C)C)C(N)=O)[C@@H](C)O [compound 220] (Ac-RPMT[Aib]RRWLAKRGL-NH2),100.0
7,CSCC[C@H](NC(=O)[C@@H]1CCCCN1C(=O)[C@H](CCCNC(=N)N)NC(C)=O)C(=O)N[C@H](C(=O)N[C@@H](C)C(=O)N[C@@H](CCCNC(=N)N)C(=O)N[C@@H](CCCNC(=N)N)C(=O)N[C@@H](Cc1c[nH]c2ccccc12)C(=O)N[C@@H](CC(C)C)C(=O)N[C@@H](C)C(=O)N[C@@H](CCCCN)C(=O)N[C@@H](CCCNC(=N)N)C(=O)NCC(=O)N[C@@H](CC(C)C)C(N)=O)[C@@H](C)O [compound 221] (Ac-R[Pip]MTARRWLAKRGL-NH2),200.0

# Same assay, conditions: Table 8
row,Structure (SMILES),MIC E. coli BW25113 [µM]
1,CSCC[C@@H](C(=O)N[C@@H](CN)C(=O)N[C@@H](Cc1ccccc1)C(=O)N[C@@H](CCCNC(=N)N)C(=O)N[C@@H](CCCNC(=N)N)C(=O)N[C@@H](Cc1ccccc1)C(=O)N[C@@H](CC(C)C)C(=O)N[C@@H](CCC(=O)O)C(=O)N[C@@H](CCCCN)C(=O)N[C@@H](Cc1c[nH]c2ccccc12)C(=O)NCC(=O)N[C@@H](CC(C)C)C(=O)N[C@@H](CC(C)C)C(=O)N[C@@H](CCCNC(=N)N)C(N)=O)N(C)C(=O)[C@@H]1CCCN1C(=O)[C@H](Cc1ccc(O)cc1)NC(C)=O [compound 95] (Ac-YP[NMeM][Dap]FRRFLEKWGLLR-NH2),50.0
2,CSCC[C@H](NC(=O)[C@H](CN)NC(=O)[C@H](CCSC)N(C)C(=O)[C@@H]1CCCN1C(=O)[C@H](Cc1ccc(O)cc1)NC(C)=O)C(=O)N[C@@H](CCCNC(=N)N)C(=O)N[C@@H](CCCNC(=N)N)C(=O)N[C@@H](Cc1ccccc1)C(=O)N[C@@H](CC(C)C)C(=O)N[C@@H](CCC(=O)O)C(=O)N[C@@H](CCCCN)C(=O)N[C@@H](Cc1c[nH]c2ccccc12)C(=O)NCC(=O)N[C@@H](CC(C)C)C(=O)N[C@@H](CC(C)C)C(=O)N[C@@H](CCCNC(=N)N)C(N)=O [compound 96] (Ac-YP[NMeM][Dap]MRRFLEKWGLLR-NH2),50.0
3,CSCC[C@@H](C(=O)N[C@@H](CN)C(=O)N(C)[C@@H](C)C(=O)N[C@@H](CCCNC(=N)N)C(=O)N[C@@H](CCCNC(=N)N)C(=O)N[C@@H](Cc1ccccc1)C(=O)N[C@@H](CC(C)C)C(=O)N[C@@H](CCC(=O)O)C(=O)N[C@@H](CCCCN)C(=O)N[C@@H](Cc1c[nH]c2ccccc12)C(=O)NCC(=O)N[C@@H](CC(C)C)C(=O)N[C@@H](CC(C)C)C(=O)N[C@@H](CCCNC(=N)N)C(N)=O)N(C)C(=O)[C@@H]1CCCN1C(=O)[C@H](Cc1ccc(O)cc1)NC(C)=O [compound 97] (Ac-YP[NMeM][Dap][NMeA]RRFLEKWGLLR-NH2),200.0
4,CSCC[C@@H](C(=O)N[C@@H](CCCNC(=N)N)C(=O)N[C@@H](CCCNC(=N)N)C(=O)N[C@@H](Cc1ccccc1)C(=O)N[C@@H](CC(C)C)C(=O)N[C@@H](CCC(=O)O)C(=O)N[C@@H](CCCCN)C(=O)N[C@@H](Cc1c[nH]c2ccccc12)C(=O)NCC(=O)N[C@@H](CC(C)C)C(=O)N[C@@H](CC(C)C)C(=O)N[C@@H](CCCNC(=N)N)C(N)=O)N(C)C(=O)[C@H](CN)NC(=O)[C@H](CCSC)N(C)C(=O)[C@@H]1CCCN1C(=O)[C@H](Cc1ccc(O)cc1)NC(C)=O [compound 98] (Ac-YP[NMeM][Dap][NMeM]RRFLEKWGLLR-NH2),25.0
5,CC(=O)N[C@@H](Cc1ccc(O)cc1)C(=O)N1CCC[C@H]1C(=O)N(C)[C@@H](Cc1ccccc1)C(=O)N[C@H](C(=O)N(C)[C@@H](C)C(=O)N[C@@H](CCCNC(=N)N)C(=O)N[C@@H](CCCNC(=N)N)C(=O)N[C@@H](Cc1ccccc1)C(=O)N[C@@H](CC(C)C)C(=O)N[C@@H](CCC(=O)O)C(=O)N[C@@H](CCCCN)C(=O)N[C@@H](Cc1c[nH]c2ccccc12)C(=O)NCC(=O)N[C@@H](CC(C)C)C(=O)N[C@@H](CC(C)C)C(=O)N[C@@H](CCCNC(=N)N)C(N)=O)[C@@H](C)O [compound 99] (Ac-YP[NMeF]T[NMeA]RRFLEKWGLLR-NH2),200.0
6,CSCC[C@@H](C(=O)N[C@@H](CN)C(=O)N(C)[C@@H](Cc1ccccc1)C(=O)N[C@@H](CCCNC(=N)N)C(=O)N[C@@H](CCCNC(=N)N)C(=O)N[C@@H](Cc1ccccc1)C(=O)N[C@@H](CC(C)C)C(=O)N[C@@H](CCC(=O)O)C(=O)N[C@@H](CCCCN)C(=O)N[C@@H](Cc1c[nH]c2ccccc12)C(=O)NCC(=O)N[C@@H](CC(C)C)C(=O)N[C@@H](CC(C)C)C(=O)N[C@@H](CCCNC(=N)N)C(N)=O)N(C)C(=O)[C@@H]1CCCN1C(=O)[C@H](Cc1ccc(O)cc1)NC(C)=O [compound 100] (Ac-YP[NMeM][Dap][NMeF]RRFLEKWGLLR-NH2),25.0
7,CSCC[C@H](NC(=O)[C@@H]1CCCN1C(=O)[C@H](Cc1ccc(O)cc1)NC(C)=O)C(=O)N[C@@H](Cc1ccccc1)C(=O)N[C@@H](CN)C(=O)N[C@@H](CCCNC(=N)N)C(=O)N[C@@H](CCCNC(=N)N)C(=O)N[C@@H](Cc1ccccc1)C(=O)N[C@@H](CC(C)C)C(=O)N[C@@H](CCC(=O)O)C(=O)N[C@@H](CCCCN)C(=O)N[C@@H](Cc1c[nH]c2ccccc12)C(=O)NCC(=O)N[C@@H](CC(C)C)C(=O)N[C@@H](CC(C)C)C(=O)N[C@@H](CCCNC(=N)N)C(N)=O [compound 104] (Ac-YPMF[Dap]RRFLEKWGLLR-NH2),200
8,CSCC[C@H](NC(=O)[C@H](CN)NC(=O)[C@H](CCSC)NC(=O)[C@@H]1CCCN1C(=O)[C@H](CCCNC(=N)N)NC(C)=O)C(=O)N[C@@H](CCCNC(=N)N)C(=O)N[C@@H](CCCNC(=N)N)C(=O)N[C@@H](Cc1ccc(-c2ccccc2)cc1)C(=O)N[C@@H](CC(C)C)C(=O)N[C@@H](CCC(=O)O)C(=O)N[C@@H](CCCCN)C(=O)N[C@@H](CCCNC(=N)N)C(=O)NCC(=O)N[C@@H](CC(C)C)C(N)=O [compound 218] (Ac-RPM[Dap]MRR[Bip]LEKRGL-NH2),200.0
